Source: ChEMBL document CHEMBL1201862, “PubChem BioAssay data set” (2004)
Activity calls are given as the source filed them.

Assays:
Beta-galactosidase = Beta-galactosidase (Escherichia coli, UniProt Q8VNN2); experiment: Dose response counterscreen for EBI2 assay utilizing the enzyme, b-galactosidase.; type: functional
[1] = target: T1, Sentrin-specific protease 8 (Homo sapiens, UniProt Q96LD8); type: functional
T1 sequence (Q96LD8 whole entry): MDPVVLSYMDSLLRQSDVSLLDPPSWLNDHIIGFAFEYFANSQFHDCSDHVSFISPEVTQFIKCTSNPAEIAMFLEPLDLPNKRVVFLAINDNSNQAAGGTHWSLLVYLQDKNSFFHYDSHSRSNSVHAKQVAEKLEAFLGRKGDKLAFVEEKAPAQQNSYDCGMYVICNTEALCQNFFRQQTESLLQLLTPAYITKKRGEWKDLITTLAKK

[2] = target: T1, Sentrin-specific protease 8; type: functional; remark: listed apart in the source
[3] = target: T2, Apoptotic protease-activating factor 1 (Homo sapiens, UniProt O14727); type: functional
T2 sequence (O14727 whole entry): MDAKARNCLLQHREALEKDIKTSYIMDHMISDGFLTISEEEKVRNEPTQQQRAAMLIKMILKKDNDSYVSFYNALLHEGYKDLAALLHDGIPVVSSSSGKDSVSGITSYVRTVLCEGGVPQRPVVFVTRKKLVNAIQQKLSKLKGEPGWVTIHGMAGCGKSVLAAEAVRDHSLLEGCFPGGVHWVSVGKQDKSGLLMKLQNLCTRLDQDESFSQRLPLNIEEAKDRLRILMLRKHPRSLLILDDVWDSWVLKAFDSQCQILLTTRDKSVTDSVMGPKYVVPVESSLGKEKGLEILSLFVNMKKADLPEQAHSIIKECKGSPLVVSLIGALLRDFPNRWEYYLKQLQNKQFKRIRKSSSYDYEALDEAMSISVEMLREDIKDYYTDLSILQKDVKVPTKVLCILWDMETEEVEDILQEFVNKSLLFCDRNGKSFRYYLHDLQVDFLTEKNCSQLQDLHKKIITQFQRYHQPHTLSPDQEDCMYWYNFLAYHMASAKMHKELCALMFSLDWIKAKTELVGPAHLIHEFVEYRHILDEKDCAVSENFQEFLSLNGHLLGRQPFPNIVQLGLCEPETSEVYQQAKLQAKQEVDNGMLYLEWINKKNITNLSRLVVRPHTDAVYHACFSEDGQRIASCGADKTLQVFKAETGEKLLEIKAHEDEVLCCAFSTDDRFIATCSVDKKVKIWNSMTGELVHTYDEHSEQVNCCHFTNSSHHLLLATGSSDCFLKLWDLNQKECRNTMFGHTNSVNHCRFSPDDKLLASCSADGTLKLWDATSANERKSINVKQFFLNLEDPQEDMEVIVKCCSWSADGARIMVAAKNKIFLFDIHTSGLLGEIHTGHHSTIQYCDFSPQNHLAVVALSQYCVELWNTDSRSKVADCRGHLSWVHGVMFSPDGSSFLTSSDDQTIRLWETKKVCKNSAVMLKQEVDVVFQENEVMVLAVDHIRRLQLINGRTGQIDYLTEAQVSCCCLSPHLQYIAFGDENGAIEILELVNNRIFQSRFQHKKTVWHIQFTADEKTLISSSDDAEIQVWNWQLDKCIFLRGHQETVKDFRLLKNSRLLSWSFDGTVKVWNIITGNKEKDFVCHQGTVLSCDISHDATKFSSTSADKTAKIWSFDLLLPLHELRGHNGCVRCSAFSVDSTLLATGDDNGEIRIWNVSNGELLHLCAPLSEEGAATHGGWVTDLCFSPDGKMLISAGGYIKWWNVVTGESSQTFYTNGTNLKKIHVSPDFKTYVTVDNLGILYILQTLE

[4] = NIH-3T3 fibroblast cytotoxicity, dose response, cytotoxicity control, cell-based, fluorescence, Alamar Blue, secondary assay (AID 2327); type: functional;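 note: NIH-3T3 mouse fibroblasts cultured with fluconazole at 8 µg/mL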
[5] = viability of HCT116 lacking mutant beta-catenin – cell-based, human colon tumor, dose response (AID 1045); type: functional;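 note: HCT116 colon tumor cells with beta catenin knocked out; cells exposed to compound for 60 hours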
[6] = fluconazole-exposed Candida albicans growth modulators – fluorescence, retest, confirmation (AID 2467); type: functional, cell-based
Vero = experiment: cells; type: functional; settings: Chlorocebus sabaeus
[7] = HEK-293T viability loss after treatment – luminescence, T-cell screen hits, cytotoxicity control for TCR NF-kB inhibitor project, dose response (AID 489026); type: functional, cell-based;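 note: cells exposed to compound about 14 hours before the viability readout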
[8] = viability of PTEN-deleted HCT116 cells – cell-based, HCT116 PTEN knockout, dose response (AID 1047); type: functional;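 note: HCT116 colon tumor cells with PTEN knocked out; cells exposed to compound for 60 hours before readout; potency for loss of cell viability measured by luminescence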
INS1 = experiment: INS-1E survival protection against cytokine death – cell-based, luminescence, retest, dose response (AID 449756); type: functional; settings: Rattus norvegicus;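 note: cell death triggered by IL-1 beta plus TNF-alpha plus IFN-gamma mixture; protective hits raise ATP signal compared with cytokine alone wells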
[9] = target: T3, Ubiquitin-conjugating enzyme E2 N (Homo sapiens, UniProt P61088); type: functional;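 note: Dose-response confirmation in a TR-FRET assay detecting UBC13-driven polyubiquitin chain formation, inhibition measured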
T3 sequence (P61088 whole entry): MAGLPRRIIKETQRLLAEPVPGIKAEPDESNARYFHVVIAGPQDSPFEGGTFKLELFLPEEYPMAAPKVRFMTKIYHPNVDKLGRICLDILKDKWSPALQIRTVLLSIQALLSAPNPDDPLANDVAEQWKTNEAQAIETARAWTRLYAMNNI

[10] = target: Eukaryotic translation initiation factor 4E (Mus musculus, UniProt P63073); experiment: blockers of eIF4G binding by eIF4E – biochemical, TR-FRET, dose response (AID 855); type: functional;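 note: potency for disrupting eIF4E binding to eIF4GI seen as loss of FRET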
Chain of Eukaryotic translation initiation factor 4E (P63073 whole entry): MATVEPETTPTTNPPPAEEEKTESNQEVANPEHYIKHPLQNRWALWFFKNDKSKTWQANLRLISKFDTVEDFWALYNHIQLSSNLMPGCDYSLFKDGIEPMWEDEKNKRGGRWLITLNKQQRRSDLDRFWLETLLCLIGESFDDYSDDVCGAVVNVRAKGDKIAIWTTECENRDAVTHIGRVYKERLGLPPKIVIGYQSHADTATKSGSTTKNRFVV

[11] = target: Heat shock protein HSP 90-alpha (Homo sapiens, UniProt P07900); type: functional, organism-based
[12] = target: T4, Replicative DNA helicase DnaB (Mycobacterium tuberculosis, UniProt P9WMR3); experiment: DnaB intein splicing inhibitors, dose response, biochemical, cell-free fluorescence (AID 449749); type: functional
T4 sequence (P9WMR3 whole entry): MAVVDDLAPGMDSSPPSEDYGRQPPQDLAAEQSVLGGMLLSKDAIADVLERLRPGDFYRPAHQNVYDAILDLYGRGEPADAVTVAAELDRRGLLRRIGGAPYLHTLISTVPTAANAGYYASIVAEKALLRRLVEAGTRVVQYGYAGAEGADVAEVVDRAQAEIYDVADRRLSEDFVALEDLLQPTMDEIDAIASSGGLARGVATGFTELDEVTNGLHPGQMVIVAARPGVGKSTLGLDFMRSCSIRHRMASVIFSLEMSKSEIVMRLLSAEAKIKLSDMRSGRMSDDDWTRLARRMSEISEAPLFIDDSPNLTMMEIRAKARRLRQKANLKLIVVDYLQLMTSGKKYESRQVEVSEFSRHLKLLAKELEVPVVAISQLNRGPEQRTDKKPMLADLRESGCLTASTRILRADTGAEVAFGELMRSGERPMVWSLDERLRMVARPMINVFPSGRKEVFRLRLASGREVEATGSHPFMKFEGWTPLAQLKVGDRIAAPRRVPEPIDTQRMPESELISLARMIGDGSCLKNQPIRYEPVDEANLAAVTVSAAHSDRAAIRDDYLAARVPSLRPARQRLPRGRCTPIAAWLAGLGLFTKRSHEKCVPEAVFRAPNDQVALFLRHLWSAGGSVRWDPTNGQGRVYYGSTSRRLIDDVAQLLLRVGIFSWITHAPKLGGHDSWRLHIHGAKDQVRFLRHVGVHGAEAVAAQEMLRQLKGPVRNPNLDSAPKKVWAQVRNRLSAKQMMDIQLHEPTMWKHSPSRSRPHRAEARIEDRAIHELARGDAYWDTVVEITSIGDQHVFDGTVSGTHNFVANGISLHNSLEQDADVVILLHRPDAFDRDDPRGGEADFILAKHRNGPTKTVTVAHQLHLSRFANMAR

Protein RecA = target: T5, Protein RecA (Mycobacterium tuberculosis, UniProt P9WHJ3); experiment: Fluorescence Cell-Free Homogeneous Dose Retest to Identify Inhibitors of RecA-Intein Splicing Activity. [Related pubchem assays (depositor defined):AID2097, AID2223, AID489010, AID492950]; type: functional
T5 sequence (P9WHJ3 whole entry): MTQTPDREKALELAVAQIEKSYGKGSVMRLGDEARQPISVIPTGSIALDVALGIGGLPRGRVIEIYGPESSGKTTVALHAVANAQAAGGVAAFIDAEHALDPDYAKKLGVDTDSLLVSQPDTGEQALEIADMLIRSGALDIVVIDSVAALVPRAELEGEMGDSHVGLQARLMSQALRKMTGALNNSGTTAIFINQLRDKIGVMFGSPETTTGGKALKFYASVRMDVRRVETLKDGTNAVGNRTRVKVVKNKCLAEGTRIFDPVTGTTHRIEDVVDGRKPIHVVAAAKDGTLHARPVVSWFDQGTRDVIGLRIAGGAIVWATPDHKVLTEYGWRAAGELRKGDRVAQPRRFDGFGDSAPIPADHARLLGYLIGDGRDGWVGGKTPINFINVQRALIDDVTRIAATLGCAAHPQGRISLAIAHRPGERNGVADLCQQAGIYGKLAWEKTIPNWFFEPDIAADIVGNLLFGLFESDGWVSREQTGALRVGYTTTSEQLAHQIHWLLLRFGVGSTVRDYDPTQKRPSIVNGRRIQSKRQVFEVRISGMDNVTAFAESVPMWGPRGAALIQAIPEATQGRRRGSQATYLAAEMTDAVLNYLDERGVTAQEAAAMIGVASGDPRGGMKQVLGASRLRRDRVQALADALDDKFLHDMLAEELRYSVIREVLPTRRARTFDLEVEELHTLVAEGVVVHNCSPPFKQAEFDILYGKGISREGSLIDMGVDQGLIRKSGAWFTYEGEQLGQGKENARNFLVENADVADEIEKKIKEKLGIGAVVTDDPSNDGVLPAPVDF

Large T antigen = Large T antigen (Simian virus 40, UniProt P03070); type: functional, Betapolyomavirus macacae;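 note: Confirmatory-stage PubChem screen for compounds that inhibit SV40 T antigen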
Chain of Large T antigen (P03070 whole entry): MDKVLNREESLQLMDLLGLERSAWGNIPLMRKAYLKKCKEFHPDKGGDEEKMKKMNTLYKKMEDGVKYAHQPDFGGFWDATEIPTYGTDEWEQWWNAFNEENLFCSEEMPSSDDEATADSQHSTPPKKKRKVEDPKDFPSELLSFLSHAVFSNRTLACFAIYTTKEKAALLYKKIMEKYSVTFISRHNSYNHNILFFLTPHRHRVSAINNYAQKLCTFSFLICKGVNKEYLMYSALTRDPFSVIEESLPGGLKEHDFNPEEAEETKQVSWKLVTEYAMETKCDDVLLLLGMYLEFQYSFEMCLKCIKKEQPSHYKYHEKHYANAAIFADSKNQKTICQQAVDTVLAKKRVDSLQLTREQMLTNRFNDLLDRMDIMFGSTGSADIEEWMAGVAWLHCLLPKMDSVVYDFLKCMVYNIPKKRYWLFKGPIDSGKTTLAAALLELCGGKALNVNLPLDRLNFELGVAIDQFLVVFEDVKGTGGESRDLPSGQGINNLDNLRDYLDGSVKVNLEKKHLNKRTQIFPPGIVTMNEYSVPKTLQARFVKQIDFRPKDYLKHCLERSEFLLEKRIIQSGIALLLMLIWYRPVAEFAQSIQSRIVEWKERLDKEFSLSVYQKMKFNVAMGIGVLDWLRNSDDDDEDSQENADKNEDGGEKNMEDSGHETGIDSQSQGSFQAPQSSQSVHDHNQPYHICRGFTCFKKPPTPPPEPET

[13] = viability loss in THP-1 monocytes – THP-1 cells, cytotoxicity control for Vif-APOBEC3G degradation inhibitor project, dose response (AID 1117359); type: functional; settings: THP-1
[14] = blockers of HIV-1 ZM109 envelope-driven cell-cell fusion – HeLa effector, CEM target cells, luciferase, cherry-pick, dose response (AID 652058); type: functional, cell-based;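 note: luciferase signal from HIV-1 Env mediated cell-cell fusion of effector and target cells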
[15] = HIV-1 AD8 envelope cell-cell fusion blockers – cherry-pick, dose response (AID 652062); type: functional, cell-based;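 note: luciferase signal from cell-cell fusion driven by HIV-1 clade B AD8 Env; potency is for inhibitors of fusion seen as a drop in luminescence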
[16] = Dd2 malaria parasite growth inhibition potency – SYBR Green, dry powder samples, dose response (AID 1159566); type: functional, cell-based;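 note: potency for growth inhibition with lower SYBR green DNA signal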
[17] = growth inhibition of PfATP4-mutant resistant parasites – NITD609-resistant line, SYBR Green, dry powder, dose response (AID 1159571); type: functional, cell-based;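 note: parasites synchronized at ring stage by sorbitol before testing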
[18] = growth inhibition of yeast DHODH-expressing 3D7 parasites – SYBR Green, dry powder samples, dose response (AID 1159570); type: functional, cell-based;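 note: parasite growth measured after 72 hours of compound exposure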
[19] = toxicity to human HepG2 hepatoma cells – cell-based, plate reader, dry powder samples, cytotoxicity control, dose response (AID 1159569); type: functional;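 note: inhibitor potency with signal falling toward the positive control level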
[20] = P. falciparum Dd2 growth inhibitors, dose response, SYBR Green, cherry-picked samples (AID 1159567); type: functional, cell-based

Chain of Beta-galactosidase (Q8VNN2 whole entry): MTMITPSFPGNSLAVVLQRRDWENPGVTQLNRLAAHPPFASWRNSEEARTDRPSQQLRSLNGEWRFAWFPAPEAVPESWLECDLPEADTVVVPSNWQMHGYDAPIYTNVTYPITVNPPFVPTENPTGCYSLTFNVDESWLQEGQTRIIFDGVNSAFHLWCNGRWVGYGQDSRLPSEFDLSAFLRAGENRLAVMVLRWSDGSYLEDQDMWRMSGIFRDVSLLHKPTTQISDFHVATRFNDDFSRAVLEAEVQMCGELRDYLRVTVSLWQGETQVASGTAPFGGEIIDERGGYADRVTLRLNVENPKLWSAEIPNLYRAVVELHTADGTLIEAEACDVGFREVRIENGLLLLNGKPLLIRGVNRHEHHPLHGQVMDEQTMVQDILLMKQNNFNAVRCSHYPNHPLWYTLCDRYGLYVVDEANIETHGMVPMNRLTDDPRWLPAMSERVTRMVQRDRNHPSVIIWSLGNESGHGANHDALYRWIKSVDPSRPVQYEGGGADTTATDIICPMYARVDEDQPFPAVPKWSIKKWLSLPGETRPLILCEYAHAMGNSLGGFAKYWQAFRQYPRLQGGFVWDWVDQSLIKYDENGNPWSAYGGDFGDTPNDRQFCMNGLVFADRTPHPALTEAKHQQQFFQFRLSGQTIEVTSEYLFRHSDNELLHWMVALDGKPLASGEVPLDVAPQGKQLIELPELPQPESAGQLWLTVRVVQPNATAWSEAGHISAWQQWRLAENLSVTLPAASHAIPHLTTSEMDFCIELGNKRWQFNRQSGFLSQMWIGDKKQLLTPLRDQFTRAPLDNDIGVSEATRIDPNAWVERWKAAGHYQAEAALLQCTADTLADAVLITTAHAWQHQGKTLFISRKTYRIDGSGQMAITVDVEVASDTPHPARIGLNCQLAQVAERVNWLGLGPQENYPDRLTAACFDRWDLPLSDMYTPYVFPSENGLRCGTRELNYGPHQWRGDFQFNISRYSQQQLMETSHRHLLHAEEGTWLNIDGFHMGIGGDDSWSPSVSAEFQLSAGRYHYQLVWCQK

CCOC(=O)c1cnc(SCC(=O)Nc2cc(C(F)(F)F)ccc2N2CCOCC2)nc1N
IC50 (Beta-galactosidase): > 80 µM (inactive)

COc1ccc(/C=C/C(=O)N2CCN(c3ccccn3)CC2)cc1
IC50 (Beta-galactosidase): > 80 µM (inactive)

Cc1cc2c(NC(=O)CC(C)(C)CC(=O)O)cccc2nn1
IC50 [1]: 8.03 µM (active)
IC50 [2]: 15.1 µM (active)

CCCCCCCCCCCCCCCC[n+]1cccc(C(=O)N(CC)CC)c1
IC50 [3]: 21.5 µM (active)
EC50 [4]: 41.8 µM (active)
EC50 [5]: 5.92 µM (active)
EC50 [6]: > 38 µM (not active)
CC50 (Vero): 18.1 µM (active)
IC50 [7]: 24.8 µM (inactive)
EC50 [8]: 6.46 µM (active)
AC50 (INS1): 4.92 µM (active)
IC50 [9]: > 20 µM (inactive)
IC50 [10]: 28.9 µM (active)
AC50 [11]: 2.89 µM (active)

COc1ccc(OCC(=O)N2CCN(c3nnc(-c4ccccc4)c4ccccc34)CC2)cc1
IC50 (Beta-galactosidase): > 80 µM (inactive)

CCOc1cc(NC2CS(=O)(=O)CC2O)c(OCC)cc1NC(=O)c1ccccc1 (stereo not given)
IC50 [1]: 45.9 µM (active)
AC50 [12]: 52.8 µM (active)
EC50 (Protein RecA): > 380 µM (inactive)
IC50 (Large T antigen): 31.1 µM (active)
IC50 [2]: 34.7 µM (active)

O=C(Nc1ccc(Br)cn1)C1CCN(S(=O)(=O)c2cccs2)CC1
CC50 [13]: > 40 µM (active)

N#Cc1cccc(Oc2ccc(S(=O)(=O)N3CCCC3)cn2)c1
CC50 [13]: > 40 µM (active)

C[C@@H]1CCCCO[C@H](CN(C)C)[C@H](C)CN([C@@H](C)CO)C(=O)c2cc(NS(=O)(=O)c3cn(C)cn3)ccc2O1
AC50 [14]: 1.36 µM (active)
AC50 [15]: 2.6 µM (active)

CNC[C@@H]1Oc2cc(C#Cc3cccnc3)ccc2S(=O)(=O)N([C@H](C)CO)C[C@H]1C
AC50 [16]: 1.02 µM (active)
AC50 [17]: 0.984 µM (active)
AC50 [18]: 2.13 µM (active)
AC50 [19]: 93.8 µM (active)
AC50 [20]: 1.61 µM (active)

CN(C)CC(=O)N1C[C@@H]2N[C@H](C1)[C@@H]2c1ccc(/C=C/c2ccccc2)cc1
AC50 [16]: 1.94 µM (active)
AC50 [17]: 4.64 µM (active)
AC50 [18]: 4.57 µM (active)
AC50 [19]: 23.2 µM (active)
AC50 [20]: 2.01 µM (active)

C[C@H](CO)N1C[C@H](C)[C@H](CN(C)C(=O)Cc2ccncc2)Oc2cc(C#CC3CCCC3)ccc2S1(=O)=O
AC50 [16]: 2.28 µM (active)
AC50 [17]: 4.96 µM (active)
AC50 [18]: 4.97 µM (active)
AC50 [19]: 97 µM (active)
AC50 [20]: 2.13 µM (active)

C[C@H]1CN([C@@H](C)CO)C(=O)c2cc(C#Cc3cccc(F)c3)cnc2O[C@@H]1CN(C)C(=O)C1CCCCC1
AC50 [16]: 0.495 µM (active)
AC50 [17]: 0.742 µM (active)
AC50 [18]: 1.37 µM (active)
AC50 [19]: 22.1 µM (active)
AC50 [20]: 0.686 µM (active)
